Measured values taken from patent publication US4075332A (priority 1976, dated 1978).
Read-outs that look alike come from different tables or passages of the source.

Experiments:
House fly = assay: whole plant or invertebrate; details: Musca domestica, 48 h
Mexican bean beetle = assay: whole plant or invertebrate; details: Epilachna varivestis
Southern army worm [1] = details: in vivo
in vivo = details: rat, po
Spider mites [2] = assay: Mite, Systemic; format: in vivo, two-spotted mite; details: Tetranychus urticae
Description: (§1) In the insecticidal and miticidal tests, the experimental compounds were tested as aqueous emulsions. These emulsions were prepared by dissolving the compound in acetone and dispersing it in distilled water with Triton X-100, an alkylaryl polyether alcohol derived by the reaction of i-octylphenol with ethylene oxide, to give spray emulsions containing the desired concentrations of the compound. These emulsions were then used in standard laboratory tests described below.
Mite, Systemic: Bean plants infested with the two-spotted mites were treated by applying 20 ml. of the formulated test chemical to the soil.

Bean aphids [3] = assay: whole plant or invertebrate; details: Aphis fabae, 48 h
Spider mites [4] = assay: whole plant or invertebrate; details: Tetranychus urticae
Bean aphids [5] = assay: Aphid, Systemic; format: in vivo, bean aphid; details: Aphis fabae, 48 h
Description: as §1
Aphid, Systemic: Nasturtium plants infested with the bean aphid were treated by applying 20 ml. of the formulated test chemical to the soil. The degree of aphid control was rated after 2 days.

Southern army worm [6] = assay: whole plant or invertebrate; details: Spodoptera eridania, read-out: Mortality, % - Southern ArmyWorm
Root-knot nematode = details: in vivo
Corn rootworm larvae = assay: whole plant or invertebrate; details: soil, 120 h
[7] = read-out: Mortality Produced, % - House Flies
[8] = read-out: Mortality Produced, % - Spider Mites Systemic
[9] = read-out: Mortality Produced, % -
[10] = 48 h, read-out: Mortality Produced, % - Spider Mites Contact
[11] = read-out: Mortality Produced, % - Mex.Bean Beetle
[12] = read-out: Mortality Produced, % - Bean Aphids Systemic
[13] = read-out: Mortality, % - Spider Mites Systemic
[14] = read-out: Mortality, % - Bean Aphids Contact
[15] = 48 h, read-out: Mortality, % - Spider Mites Contact
[16] = read-out: Mortality, % - Mexican Bean Beetles
[17] = read-out: Mortality Produced, % - Bean Aphids Contact
[18] = read-out: Mortality, % - Mexican Bean Beetle
[19] = read-out: Mortality, % - Bean Aphids Systemic

CCOP(=S)(OCC)SCSc1ccc(Cl)cc1 [Trithion, reference compound]
mortality at 20 ppm (House fly; read-out: House Fly Spray Mortality, % (at 20 ppm)): 80% | mortality at 100 ppm (Mexican bean beetle; read-out: Mexican Bean Beetle Larvae Mortality, %): 90% | Southern Army Worm Mortality, % (Southern army worm [1]; southern armyworm): 0%

CCOP(=S)(OCC)SCC(C)SCC (centres unmarked) [reference compound]
LD50 at 336 h (in vivo): 25 to 50 mg/kg

CCCSP(=O)(OC)SCC(C)SC (centres unmarked) [Example 40, O-Methyl S-1-Propyl S'-2-Methylthiopropyl Dithiophosphate]
mortality at 50 ppm (House fly; [7]): 100% | mortality at 250 ppm (House fly; [7]): 100% | mortality at 50 ppm (Spider mites [2]; [8]): 100% | mortality at 250 ppm (Spider mites [2]; [8]): 100% | mortality at 50 ppm (Bean aphids [3]; [9]): 100% | mortality at 250 ppm (Bean aphids [3]; [9]): 100% | mortality at 50 ppm (Spider mites [4]; [10]): 100% | mortality at 250 ppm (Spider mites [4]; [10]): 100% | mortality at 50 ppm (Mexican bean beetle; [11]): 0% | mortality at 250 ppm (Mexican bean beetle; [11]): 100% | mortality at 50 ppm (Bean aphids [5]; [12]): 100% | mortality at 250 ppm (Bean aphids [5]; [12]): 100%

CCCSP(=O)(OCC)SCCSC(C)C (centres unmarked) [Example 3, O-Ethyl S-1-Propyl S'-2-i-Propylthioethyl Dithiophosphate]
mortality at 250 ppm (Spider mites [2]; [13]): 85% | mortality at 250 ppm (Bean aphids [3]; [14]): 70% | mortality at 250 ppm (Southern army worm [6]): 100% | mortality at 250 ppm (Spider mites [4]; [15]): 100% | mortality at 250 ppm (Mexican bean beetle; [16]): 100%

CCCSP(=O)(OCC)SCC(C)SC(C)C (centres unmarked) [Example 35, O-Ethyl S-1-Propyl S'-2-i-Propylthiopropyl Dithiophosphate]
mortality at 50 ppm (Bean aphids [3]; read-out: Bean Aphids Mortality,%): 50% | Nematode Control,% (Root-knot nematode): 100% | mortality at 10 ppm (Spider mites [4]; read-out: Spider Mites Mortality,%): 100% | mortality at 50 ppm (Mexican bean beetle; read-out: Mexican Bean Beetles Mortality,%): 100% | S.Armyworm Mortality,% (Southern army worm [1]): 100% | mortality at 2.5 ppm (Corn rootworm larvae; read-out: Corn Rootworm Mortality,%): 70%

CCOP(=O)(SCC(C)SC)SC(C)C (centres unmarked) [Example 42, O-Ethyl S-2-Propyl S-2-Methylthiopropyl Dithiophosphate]
mortality at 50 ppm (House fly; [7]): 0% | mortality at 250 ppm (House fly; [7]): 100% | mortality at 50 ppm (Spider mites [2]; [8]): 0% | mortality at 250 ppm (Spider mites [2]; [8]): 100% | mortality at 50 ppm (Bean aphids [3]; [17]): 50% | mortality at 250 ppm (Bean aphids [3]; [17]): 100% | mortality at 50 ppm (Spider mites [4]; [10]): 100% | mortality at 250 ppm (Spider mites [4]; [10]): 100% | mortality at 50 ppm (Mexican bean beetle; [11]): 100% | mortality at 250 ppm (Mexican bean beetle; [11]): 100% | mortality at 50 ppm (Bean aphids [5]; [12]): 20% | mortality at 250 ppm (Bean aphids [5]; [12]): 80%

CCCSP(=O)(OCC)SCC(CC)SC (centres unmarked) [Example 38, O-Ethyl S-1-Propyl S'-2-Methylthiobutyl Dithiophosphate]
mortality at 50 ppm (House fly; read-out: Mortality Produced at 50 ppm, % - Houseflies): 100% | mortality at 50 ppm (Bean aphids [3]; read-out: Mortality Produced at 50 ppm, % - Bean Aphids): 100% | Nematodes Control % at 25 lb/acre (Root-knot nematode): 90% | mortality at 50 ppm (Spider mites [4]; read-out: Mortality Produced at 50 ppm, % - Spider Mites): 100% | mortality at 50 ppm (Mexican bean beetle; read-out: Mortality Produced at 50 ppm, % - Mexican Bean Beetles): 10% | Mortality Produced at 50 ppm, % - Southern Army Worm (Southern army worm [1]; southern armyworm): 80% | mortality at 2.5 ppm (Corn rootworm larvae; read-out: Corn Rootworm Mortality, % at 2.5 ppm): 40%

CCCOP(=O)(SCCC)SCC(C)SC (centres unmarked) [Example 43, O,S-Di-n-propyl S'-2-Methylthiopropyl dithiophosphate]
mortality at 50 ppm (House fly; [7]): 70% | mortality at 250 ppm (House fly; [7]): 100% | mortality at 50 ppm (Spider mites [2]; [8]): 0% | mortality at 250 ppm (Spider mites [2]; [8]): 100% | mortality at 50 ppm (Bean aphids [3]; [9]): 80% | mortality at 250 ppm (Bean aphids [3]; [9]): 80% | mortality at 50 ppm (Spider mites [4]; [10]): 50% | mortality at 250 ppm (Spider mites [4]; [10]): 100% | mortality at 50 ppm (Mexican bean beetle; [11]): 80% | mortality at 250 ppm (Mexican bean beetle; [11]): 100% | Mortality Produced, % - S.Army Worm (Southern army worm [1]; southern armyworm): 0% | mortality at 50 ppm (Bean aphids [5]; [12]): 0% | mortality at 250 ppm (Bean aphids [5]; [12]): 20%

CCCSP(=O)(OCC)SCC(C)S(C)(=O)=O (centres unmarked) [Example 9, O-Ethyl S-1-Propyl S'-2-Methylsulfonylpropyl Dithiophosphate]
mortality at 250 ppm (Spider mites [2]; [13]): 90% | mortality at 250 ppm (Bean aphids [3]; [14]): 90% | Nematode Control,% at 25 lb/acre (Root-knot nematode): 80% | mortality at 250 ppm (Southern army worm [6]): 100% | mortality at 250 ppm (Spider mites [4]; [15]): 90% | mortality at 250 ppm (Mexican bean beetle; [18]): 100% | mortality at 250 ppm (Bean aphids [5]; [19]): 95%

CCCSP(=O)(OCC)SCCS(C)(=O)=O (centres unmarked) [Example 7, O-Ethyl S-1-Propyl S'-(2-Methylsulfonylethyl) Dithiophosphate]
LD50 at 336 h (in vivo): > 100 mg/kg | mortality at 250 ppm (Spider mites [2]; [13]): 100% | mortality at 250 ppm (Bean aphids [3]; [14]): 100% | Nematode Control,% at 25 lb/acre (Root-knot nematode): 100% | mortality at 250 ppm (Southern army worm [6]): 100% | mortality at 250 ppm (Spider mites [4]; [15]): 100% | mortality at 250 ppm (Mexican bean beetle; [18]): 100% | mortality at 250 ppm (Bean aphids [5]; [19]): 100%

CCCSCCSP(=O)(OCC)SCCC (centres unmarked) [Example 2, O-Ethyl S-1-Propyl S'-2-n-Propylthioethyl Dithiophosphate]
mortality at 250 ppm (House fly; read-out: Mortality, % - House Flies): 100% | mortality at 250 ppm (Spider mites [2]; [13]): 100% | mortality at 250 ppm (Bean aphids [3]; [14]): 90% | mortality at 250 ppm (Spider mites [4]; [15]): 100% | mortality at 250 ppm (Mexican bean beetle; [16]): 100% | mortality at 250 ppm (Bean aphids [5]; [19]): 75%
